Assay [1] has as its system ABCA1 protein. The assay is described as follows: Western blot of ABCA1 protein in mouse peritoneal macrophages. To be noted: 24 h. Format: cell-based. As to the method:
(§1) Protein extracts from macrophages were prepared by lysing the cells in modified radioimmunoprecipitation assay buffer (50 mM Tris, 150 mM NaCl, 1 mM EDTA. 1% Triton X-100) containing a protease inhibitor cocktail (Complete EDTA Free; Roche). Protein content in the extracts was determined by using the DC protein assay (Bio-Rad, Hercules, Calif.). Equal amounts of protein (40 to 50 μg) were separated by electrophoresis with 4 to 15% acrylamide gradient gels (Bio-Rad) and then transferred to nitrocellulose membrane (Trans-Blot Transfer Medium; Bio-Rad). Membranes were probed with anti-ABCA1 antibody (Novus Biologicals, Littleton, Colo.) and anti-β-actin antibody (Sigma) according to the manufacturer's recommendations. Immunoblots were developed by using a chemiluminescent detection system (Super Signal West Pico chemiluminescent substrate; Pierce, Rockford, Ill.).
(A western blot detects proteins with antibodies after separation by electrophoresis.)

The subject of assay [2] is ABCA1 protein. In words: Western blot of ABCA1 protein in human monocyte-derived macrophages. In kind it is cell-based. To be noted: human primary monocytes/macrophages, 10 μM, 24 h. As to the method: as §1
Assay [3] concerns ABCA1, ABCG1, SREBP-1c, apoE, LXRα, Cyp26 mRNA. In words: Quantitative real-time PCR of LXR target genes and Cyp26 in mouse peritoneal macrophages. To be noted: 24 h. Format: cell-based. As to the method:
Total RNA was isolated from mouse peritoneal macrophages or ˜50 mg of mouse liver tissue by using the RNeasy Mini kit (Qiagen, Valencia, Calif.) or RNA-Bee reagent (Tel-Test, Inc., Friendswood, Tex.), respectively, according to the manufacturer's protocol. Real-time quantitative PCR assays were performed by using the Mx4000 Quantitative PCR System (Stratagene, La Jolla, Calif.). Briefly, 5 μg of total RNA was treated with RNase-free DNase I (Ambion, Austin, Tex.), and first-strand cDNA was synthesized with oligo(dT)12-18 by using a Superscript II RNase H^− reverse transcriptase reagent kit (Invitrogen) according to the manufacturer's protocol. For quantification of mouse ABCA1, ABCG1, SREBP-1c, LXRα, ApoE, and fatty acid synthase (FAS) mRNA levels, each amplification mixture contained 62.5 ng of cDNA, appropriate concentrations of forward and reverse primers and of dual-labeled fluorogenic probe (Biosearch Technologies, Novato, Calif.), and 12.5 μl of TaqMan Universal PCR master mix (Applied Biosystems, Foster City, Calif.). PCR thermocycling parameters were 50° C. for 2 min, 95° C. for 10 min, and 45 cycles of 95° C. for 15 s and 60° C. for 1 min. All samples were analyzed for β-actin expression in the same run. Quantitative expression values were extrapolated from standard curves for the gene of interest with 10-fold dilutions of cDNA (in triplicate). Each sample was normalized to β-actin, triplicates were averaged, and relative mRNA levels were determined. The following mouse primers and probes were used: mouse ABCA1 (mABCA1) forward (F) (5′-[…]-3′), mABCA1 reverse (R) (5′-[…]-3′), and mABCA1 TaqMan probe (5′-FAM-[…]-BHQ-3′); mABCG1 F (5′-[…]-3′), mABCG1 R (5′-[…]-3′), and mABCG1 TaqMan probe (5′-FAM-[…]-BHQ-3′); mSREBP-1c F (5′-[…]-3′), mSREBP-1c R (5′-[…]-3′), and mSREBP-1c TaqMan probe (5′-FAM-[…]-BHQ-3′); mApoE F (5′-[…]-3′), mApoE R (5′-[…]-3′), and mApoE TaqMan probe (5′-FAM-[…]-BHQ-3′); mLXRα F (5′-[…]-3′), mLXRα R (5′-[…]-3′), and mLXRα TaqMan probe (5′-FAM-[…]-BHQ-3′); mFAS F (5′-[…]-3′), mFAS R (5′-[…]-3′), and mFAS TaqMan probe (5′-FAM-[…]-BHQ-3′); and mβ-actin F (5′-[…]-3′), mβ-actin R (5′-[…]-3′), and mβ-actin TaqMan probe (5′-JOE-[…]-BHQ-3′).
(§2) For quantification of mouse Cyp26 mRNA levels, each amplification mixture (25 μ) contained 62.5 ng of cDNA, 100 nM concentrations of reverse and forward primers, and 2.5 μl of 10× SYBR Green PCR master mix (Perkin-Elmer Life Sciences, Boston, Mass.). Quantitative expression values were extrapolated from standard curves for Cyp26 expression with 10-fold dilutions of cDNA (in triplicate). Each sample was normalized to β-actin that was deduced from TaqMan assays, triplicate results were averaged, and relative Cyp26 mRNA levels were determined. The primers mCyp26 F (5′-[…]-3′) and mCyp26 R (5′-[…]-3′) were used. RNA measurements from human monocyte-derived macrophages were performed as described previously (10, 44).

For assay [4] the test system is unchanged. The assay is described as follows: Quantitative real-time PCR of LXR target genes and Cyp26 in human monocyte-derived macrophages. In kind it is cell-based. The method, then: as §2
A general note: In qPCR the cycle at which signal appears reflects the starting amount.

Assay [5] concerns RARγ protein. The assay is described as follows: Western blot of RARγ protein in macrophages. Format: cell-based. To be noted: macrophages incubated with ATRA.
Description: Nuclear protein extracts from tissues and macrophages were isolated according to the following method. Tissue samples and cells were first homogenized on ice and then lysed in lysis buffer (10 mM Tris [pH 7.5], 3 mM MgCl2, 10 mM NaCl, 0.5% NP-40) containing protease inhibitor cocktail. The nucleus was then pelleted by centrifugation for 10 min at 6,000× g, immediately resuspended in a nucleus suspension buffer (250 mM Tris [pH 8.0], 60 mM KCl, I mM dithiothrietol), and then rotated for 1 h. […] The intensities of the bands were quantified by using ImageQuant and normalized to (β-actin.
In assay [6] the test system is acute promyelocytic leukemia. Conditions: patients with acute promyelocytic leukemia; cited from earlier work.
In assay [7] the test system is ABCA1-mediated cholesterol efflux from mouse peritoneal macrophages. In words: Cholesterol efflux to apoA-I from cholesterol-loaded macrophages.
The mark [8] stands for this setting: mouse primary macrophages, ATRA 0.1 to 5 μM.
Setting [9] is: human primary monocytes/macrophages, ATRA 0.5 to 5 μM, 24 h.

Results on 1 compound are retold here after patent US20060009520A1, “Retinoid-based methods for altering macrophage cholesterol” (priority 2004, published 2006).

Bounds are passed on as bounds.

For `CC1=C(/C=C/C(C)=C/C=C/C(C)=C/C(=O)O)C(C)(C)CCC1` [ATRA, all-trans-retinoic acid], the ABCA1 protein levels result in assay [1] is on record as “dose dependently increased”. In addition, the ABCA1 protein entry in assay [2] is “increased”. Besides, the “ABCA1 mRNA” value in assay [3] (mouse peritoneal macrophages, ATRA 0.1 to 5 μM) is “increase in the mRNA that was parallel to the dose response of protein and cholesterol efflux”. Moreover, the “lowest dose giving ABCA1 mRNA response” value in assay [3] (mouse primary macrophages) came out at 0.25 µM. In assay [3] (setting [8]), the “ABCG1 mRNA induction” value was “weaker and somewhat inconsistent induction”; the “LXRα mRNA induction” value is given as “no significant induction”; the “SREBP-1c mRNA induction” value was “weaker and somewhat inconsistent induction”; the “apoE mRNA induction” value is given as “no significant induction”. Further, in assay [4] (human primary macrophages, even at the higher dose), the “apoE mRNA induction” value is reported as “not induced”. Also, in assay [4] (setting [9]), the “ABCA1 mRNA induction” value was “strong induction”, the “ABCG1 mRNA induction” value was “strong induction”, the “LXRα mRNA induction” value is reported as “weaker but significant increases” and the “SREBP-1c mRNA induction” value is “weaker but significant increases”. For the same compound, in assay [5], the “induction of RARγ protein” value is given as under 2 fold. The “patients in whom remission is induced” value in assay [6] is listed as “ca. 80%”. The “ABCA1-dependent cholesterol efflux to apoA-1, dose response” value in assay [7] is recorded as “increased ABCA1-dependent cholesterol efflux to apoA-1 in a dose-dependent fashion”. Besides, the “increase in cholesterol efflux to apoA-I, ATRA compared with TO-901317” value in assay [7] (1 and 5 μM ATRA) is “comparable to that occurring in macrophages treated with the LXR activator TO-901317”. The “increase of cholesterol efflux to apoA-1” value in assay [7] (maximum dose of 10 μM) is about 2 fold.
